# Read-outs that look alike come from different tables or passages of the source.
# How the values were obtained:
# lipid metabolism = test: Effects of diphosphonates on lipid metabolism in normal rats (serum lipids, α/β cholesterol); format: in vivo, male Wistar rats; details: for change in vivo at 200 mg/kg/day: Rattus norvegicus, po, normal rats (N), 200 mg/kg/day p.o.
# Description: Effects of diphosphonates of formula (I) on lipid metabolism in normal rats Groups of 4 to 5 normal male Wistar rats, weighing about 200 g were treated with diphosphonates (200 mg/kg/day) p.o. for 4 to 21 days. Water soluble compounds were given in solution in 24 mM bicarbonate buffer. Lipid soluble compounds were given in corn oil. The rats were weighed, sacrificed by decapitation (under light ether anesthesia) after overnight fasting. Blood was collected and serum used for analysis. The following blood parameters reflecting changes in lipid metabolism are reported: […]
# free fatty acids measured according to W. G. Duncombe (Clin. Acta 9, 122, 1964) triglycerides enzymatic method (Boehringer Mannheim Kit 126 012) phospholipids: molybdate/vanadate reaction (Boehringer Mannheim Kit 124 974) β-lipoprotein cholesterol was measured after heparin, CaCl2 precipitation according to M. Burstein et al. (La Presse Medicale 43, 974, 1958) and to D. Watson (Clin. Chim. Acta 5, 637, 1960).
# In above Table IV, results are given as % control values. Except for serum calcium, values which differ from control values by less than 15% are considered as non significant (NS).
# Serum free fatty acids, triglycerides and phospholipids were measured in normal rats (N) and rats previously fed a cholesterol diet for 10 days (C.F.) Serum α/β cholesterol, total lipids and cholesterol of liver and aorta were determined in normal rats (N) and rats which had previously been fed on high cholesterol diet (C.F.)
# lipoprotein cholesterol [1] = test: Lipoprotein cholesterol changes in normal rats treated for 90 days; format: in vivo, male and female rats
# Description: (§1) Treating male and female rats with 40, 400 and 800 mg/kg of compound 16 per day for 90 days produced a sustained dose response augmentation in serum high density lipoprotein cholesterol (HDL-C or α-cholesterol) as high as 220% above controls at high dose level (Table VI).
# *Plasma was pooled from 5 animals of each group and analyzed.
# [2] = Weight of fat tissue from rats treated for 90 days; format: in vivo, male and female rats
# Description: as §1
# lipoprotein cholesterol [3] = test: Lipoprotein cholesterol in cholesterol pre-fed rabbits; format: in vivo; details: 200 mg/kg per day, 4 months, n = 5
# From the text: Animals were fed a cholesterol rich diet for 8 weeks before treatment was
# started which continued for 4 months without cholesterol supplement.
# liver cholesterol = test: Liver cholesterol clearing activity in cholesterol pre-fed rabbits; format: in vivo; details: 4 months; for Liver Cholesterol / Liver Cholesterol Free/Ester Ratio / Liver Phospholipids / Liver Total Lipids / Liver/Body Weight % Change: n = 5
# plasma lipoproteins = test: Plasma lipoproteins in Cynomolgus monkeys fed simultaneously a high cholesterol diet during 60 days; format: in vivo; details: for HDL Chol. / α/β Chol. ratio: n = 7
# Description: (§2) | Dose: 25 mg d.i.d. per day
# renin = test: Renin activity in Cynomolgus monkeys fed simultaneously a high cholesterol diet; format: in vivo; details: for Renin Activity: n = 7
# Description: as §2
# lipoproteins = test: Effect on lipoproteins from 5 treated human patients; format: in vivo; details: for HDL2 Cholesterol / HDL2 Free/Total Cholesterol ratio / HDL3 Cholesterol / HDL3 Free/Total Cholesterol ratio / LDL Cholesterol / LDL Free/Total Cholesterol ratio / VLDL Cholesterol / VLDL Free/Total Cholesterol ratio: n = 5; for HDL2 Free/Total Cholesterol ratio, % change / HDL3 Cholesterol, % change / HDL3 Free/Total Cholesterol ratio, % change / VLDL Free/Total Cholesterol ratio, % change: vs pre-test
# Description: Five human patients were treated over several days with either 5 mg/kg or 10 mg/kg of compound 16 (Table XV). […] It is generally recognized that an increase in free cholesterol ratio is indicative of an increased clearing or turnover of the lipoprotein cholesterol (Schwartz, C. C. Biochem. Biophys. Acta 663:143-162, 1981).
# [4] = 30 days on high cholesterol diet
# [5] = 60 days on high cholesterol diet
# [6] = simultaneous cholesterol-compound 16 treatment
structure (smiles),measurement,setting,value
"COP(=O)(OC)OC(c1ccc(Cl)cc1)P(=O)(OC)OC (stereo not drawn) [Compound 16, Dimethyl α(dimethoxyphosphinyl) p-chlorobenzyl phosphate]",change in vivo at 200 mg/kg/day,lipid metabolism; read-out: Serum Chol. α/β (% control values),121%
same,change in vivo at 200 mg/kg/day,lipid metabolism; read-out: Serum Free Fatty Acids (% control values),-50%
same,change in vivo at 200 mg/kg/day,lipid metabolism; read-out: Serum Phospholipids (% control values),26%
same,change in vivo at 200 mg/kg/day,lipid metabolism; read-out: Serum Triglycerides (% control values),< 15%
same,"increased HDL lipids, especially HDL cholesterol",lipid metabolism; normal rats,observed most dramatically
same,increase in serum phospholipid,lipid metabolism; rats,found to increase
same,α-cholesterol/β-cholesterol ratio / lipoprotein cholesterol,lipid metabolism; rats,highly significant activity
same,α-chol,"lipoprotein cholesterol [1]; 40 mg/kg, female",54 mg/dL
same,α/β ratio,"lipoprotein cholesterol [1]; 40 mg/kg, female",6.0
same,β-chol,"lipoprotein cholesterol [1]; 40 mg/kg, female",9.0 mg/dL
same,α-chol,"lipoprotein cholesterol [1]; 40 mg/kg, male",63 mg/dL
same,α/β ratio,"lipoprotein cholesterol [1]; 40 mg/kg, male",7.6
same,β-chol,"lipoprotein cholesterol [1]; 40 mg/kg, male",8.3 mg/dL
same,α-chol,"lipoprotein cholesterol [1]; 400 mg/kg, female",68 mg/dL
same,α/β ratio,"lipoprotein cholesterol [1]; 400 mg/kg, female",11.5
same,β-chol,"lipoprotein cholesterol [1]; 400 mg/kg, female",5.9 mg/dL
same,α-chol,"lipoprotein cholesterol [1]; 400 mg/kg, male",78 mg/dL
same,α/β ratio,"lipoprotein cholesterol [1]; 400 mg/kg, male",11.5
same,β-chol,"lipoprotein cholesterol [1]; 400 mg/kg, male",7.6 mg/dL
same,α-chol,"lipoprotein cholesterol [1]; 800 mg/kg, female",117 mg/dL
same,α/β ratio,"lipoprotein cholesterol [1]; 800 mg/kg, female",11.3
same,β-chol,"lipoprotein cholesterol [1]; 800 mg/kg, female",10.3 mg/dL
same,α-chol,"lipoprotein cholesterol [1]; 800 mg/kg, male",128 mg/dL
same,α/β ratio,"lipoprotein cholesterol [1]; 800 mg/kg, male",10.7
same,β-chol,"lipoprotein cholesterol [1]; 800 mg/kg, male",11.9 mg/dL
same,augmentation in serum HDL-C (α-cholesterol) above controls,lipoprotein cholesterol [1]; high dose level (800 mg/kg),≤ 220%
same,decreasing the weight of fat tissue,"[2]; 40, 400 and 800 mg/kg",impressive dose response effect in decreasing the weight of fat tissue
same,Weight of fat tissue,"[2]; females, 40 mg/kg, n = 10",1.33 ± 0.66 g
same,Weight of fat tissue,"[2]; females, 400 mg/kg, n = 5",0.39 ± 0.24 g
same,Weight of fat tissue,"[2]; females, 800 mg/kg, n = 5",0.48 ± 0.14 g
same,Weight of fat tissue,"[2]; males, 40 mg/kg, n = 8",2.49 ± 0.94 g
same,Weight of fat tissue,"[2]; males, 400 mg/kg, n = 5",1.95 ± 0.52 g
same,Weight of fat tissue,"[2]; males, 800 mg/kg, n = 5",0.97 ± 0.30 g
same,Total Cholesterol,lipoprotein cholesterol [3],127.0 ± 68.0
same,α-chol,lipoprotein cholesterol [3],41.1 ± 11.1
same,α/β-ratio,lipoprotein cholesterol [3],0.94
same,β-chol,lipoprotein cholesterol [3],63.4 ± 43.0
same,α/β-ratio,lipoprotein cholesterol [3]; listed as Cpd 16,0.94 ± 0.20
same,Liver Cholesterol,liver cholesterol; 100 mg/kg/day,3.1 ± 1.2 mg/g
same,Liver Cholesterol Free/Ester Ratio,liver cholesterol; 100 mg/kg/day,2.23 ± 0.27
same,Liver Phospholipids,liver cholesterol; 100 mg/kg/day,20.7 ± 2.7 mg/g
same,Liver Total Lipids,liver cholesterol; 100 mg/kg/day,20.5 ± 3.4 mg/g
same,Liver/Body Weight % Change,liver cholesterol; 100 mg/kg/day,+8%
same,Liver Cholesterol,liver cholesterol; 200 mg/kg/day,3.9 ± 1.4 mg/g
same,Liver Cholesterol Free/Ester Ratio,liver cholesterol; 200 mg/kg/day,2.24 ± 0.46
same,Liver Phospholipids,liver cholesterol; 200 mg/kg/day,26.3 ± 3.1 mg/g
same,Liver Total Lipids,liver cholesterol; 200 mg/kg/day,25.9 ± 2.9 mg/g
same,Liver/Body Weight % Change,liver cholesterol; 200 mg/kg/day,+12%
same,"pre-established cholesterol deposits, liver",liver cholesterol; cholesterol pre-fed rabbits,effectively decreased the pre-established cholesterol deposits
same,HDL Chol.,plasma lipoproteins; [4],49 ± 4 mg/100 ml
same,α/β Chol. ratio,plasma lipoproteins; [4],0.22 ± 0.05
same,HDL Chol.,plasma lipoproteins; [5],39 ± 6 mg/100 ml
same,α/β Chol. ratio,plasma lipoproteins; [5],0.22 ± 0.05
same,HDL-C values and α/β ratios,"plasma lipoproteins; simultaneous cholesterol feeding, 60 days",increase HDL-C values and the α/β ratios
same,Renin Activity,renin; [4],0.8 ± 0.5 ng AI /ml/h
same,Renin Activity,renin; [5],1.1 ± 0.2 ng AI /ml/h
same,renin inhibition,renin; [6],essentially completely inhibited
same,"renin inhibition, fold",renin; [6],20 fold
same,HDL2 Cholesterol,lipoproteins; 5 mg/kg,0.82 ± 0.13 mmol/L
same,HDL2 Free/Total Cholesterol ratio,lipoproteins; 5 mg/kg,0.231 ± 0.027
same,HDL3 Cholesterol,lipoproteins; 5 mg/kg,0.72 ± 0.09 mmol/L
same,HDL3 Free/Total Cholesterol ratio,lipoproteins; 5 mg/kg,0.242 ± 0.018
same,LDL Cholesterol,lipoproteins; 5 mg/kg,3.05 ± 0.26 mmol/L
same,LDL Free/Total Cholesterol ratio,lipoproteins; 5 mg/kg,0.304 ± 0.005
same,VLDL Cholesterol,lipoproteins; 5 mg/kg,0.20 ± 0.03 mmol/L
same,VLDL Free/Total Cholesterol ratio,lipoproteins; 5 mg/kg,0.472 ± 0.019
same,"HDL2 Free/Total Cholesterol ratio, % change",lipoproteins; 5 mg/kg,+24%
same,"HDL3 Cholesterol, % change",lipoproteins; 5 mg/kg,+36%
same,"HDL3 Free/Total Cholesterol ratio, % change",lipoproteins; 5 mg/kg,+12%
same,"VLDL Free/Total Cholesterol ratio, % change",lipoproteins; 5 mg/kg,+14%
same,HDL2 Cholesterol,lipoproteins; 10 mg/kg,0.87 ± 0.07 mmol/L
same,HDL2 Free/Total Cholesterol ratio,lipoproteins; 10 mg/kg,0.221 ± 0.003
same,HDL3 Cholesterol,lipoproteins; 10 mg/kg,0.60 ± 0.02 mmol/L
same,HDL3 Free/Total Cholesterol ratio,lipoproteins; 10 mg/kg,0.285 ± 0.044
same,LDL Cholesterol,lipoproteins; 10 mg/kg,2.86 ± 0.23 mmol/L
same,LDL Free/Total Cholesterol ratio,lipoproteins; 10 mg/kg,0.303 ± 0.002
same,VLDL Cholesterol,lipoproteins; 10 mg/kg,0.26 ± 0.03 mmol/L
same,VLDL Free/Total Cholesterol ratio,lipoproteins; 10 mg/kg,0.519 ± 0.031
same,"HDL2 Free/Total Cholesterol ratio, % change",lipoproteins; 10 mg/kg,+19%
same,"HDL3 Cholesterol, % change",lipoproteins; 10 mg/kg,+13%
same,"HDL3 Free/Total Cholesterol ratio, % change",lipoproteins; 10 mg/kg,+32%
same,"VLDL Free/Total Cholesterol ratio, % change",lipoproteins; 10 mg/kg,+25%
same,HDL3-cholesterol,"lipoproteins; human patients, 5 or 10 mg/kg",significant increase
same,free/total cholesterol ratio in isolated lipoprotein fractions,"lipoproteins; human patients, 5 or 10 mg/kg",significantly elevated

# Source: US4416877A, “Anti-atherosclerotic pharmaceutical compositions containing diphosphonate compounds” (priority 1979, dated 1983)
